In patent US20240269170A1, “Treatment of Inflammatory Conditions or Diseases” (Queen Mary University of London, priority 2021, published 2024):

System: K/B×N serum induced arthritis in C57BL/6 mice
Assay: Sustained K/B×N serum induced arthritis, MCTR3 given 10 days after disease onset
Format: in vivo, mouse
Description: (A-D) K/B×N serum (100 μL via intraperitoneal injection, i.p.) was administered to C57BL/6 mice on days 0, 2 and 8 to initiate and prolong inflammatory arthritis. Mice were treated 1 μg/mouse MCTR3 or vehicle (PBS+0.1% EtOH) on day 10, 12 and 14 via intravenous (i.v.) injection. Disease course was assessed by evaluating A) clinical scores and B) paw oedema daily. Results are mean±SEM, n=9 mice per group. Statistical differences were evaluated using a Two-Way ANOVA. Arrows denote days when MCTR3 was administered. (C,D) paws were harvested on day 25, and cells liberated from the joints and the expression of phenotypic markers was evaluated on joint macrophages using flow cytometry and PLS-DA. (C) scores plot with highlighted regions denoting the clusters representing cells from each group and (D) VIP scores for each of the markers evaluated. Each dot in the score plot represents a separate mouse. (E-H) Arthritis was induced in DBA/1 mice by administration of 10 μg G6PI in CFA on Day 0. On day 24, 26 and 28 (denoted in blue arrows), mice were administered 1 μg/mouse MCTR3 or vehicle (PBS+0.1% EtOH) i.v. and (E) clinical scores and (F) paw oedema were measured. Results are mean±SEM, n=mice 7 per group from 2 separate experiments. Statistical differences were evaluated using a Two-Way ANOVA. (G-H) paws were harvested on day 36, and cells liberated from the joints and the expression of phenotypic markers was evaluated on joint macrophages using flow cytometry and PLS-DA. (G) scores plot with highlighted regions denoting the clusters representing cells from each group and (H) VIP scores for each of the markers evaluated. Each dot in the score plot represents a separate mouse.
FIG. 2: MCTR3 promotes bone and cartilage repair. C57BL/6 mice were administered 100 μL K/B×N serum i.p. on day 0, 2 and 8. Mice were treated with 1 μg/mouse MCTR3 or vehicle (PBS+0.1% EtOH) i.v. on day 10, 12 and 14. Hind paws and blood were collected on day 25 and A) glycosaminoglycan content was evaluated using Safranin-O staining. (left and centre panels) Representative images from Safranin-O stained knee joints and (right panel) quantification of Safranin-O stained knee joints. Results are mean±SEM, n=8 per group. Statistical differences were evaluated using Mann-Whitney U test. B-D) Expression of collagen type 2 (Col 2) and collagen type X (Col X) was evaluated using immunohistochemistry. B) Representative images from immunofluorescent assessment of Col 2 and Col X expression, C) mean intensity of Col 2 and D) average number of cells expressing Col X. Results are mean±SEM, n=5 per group, statistical differences were evaluated using Mann-Whitney U test. E-I) microCT analysis was performed on ankle joints ex vivo to assess bone callus cover. D) Representative images of ankles from vehicle and MCTR3 treated mice, where red represents the callus area. F) Callus tissue volume, G) bone volume, H) bone surface and I) the ratio of bone surface to bone volume of the ankles from mice treated with either vehicle or MCTR3. Results are mean±SEM, n=8 per group from two separate experiments. Statistical differences were evaluated Mann-Whitney U test. J,K) Blood was collected at the end of the experiment and plasma PINP and CTX-I levels were assessed. Results are mean±SEM, n=5 for Vehicle and n=7 for MCTR3 groups. Statistical differences were evaluated Mann Whitney U test.
FIG. 8: MCTR3 decreased leukocyte infiltration and cartilage damage in arthritic mice. Related to FIG. 1. C57BL/6 mice were administered 100 μL K/B×N serum i.p. on day 0, 2 and 8. Mice were treated with 1 μg/mouse MCTR3 or vehicle i.v. (PBS+0.1% EtOH) on day 10, 12 and 14. Hind paws were collected on day 25, fixed and stained using H&E stain. (A) representative images (B) Pannus size (C) leukocyte infiltration and (D) cartilage damage were evaluated. Results are mean±SEM. n=5 mice per group. IFP=intrapatellar fat, M=meniscus, TB=Tibia, PF=Pannus formation, Red arrows denote leukocyte infiltration. […]

[1] = 1 μg/mouse i.v. on day 10, 12 and 14
[2] = 1 μg/mouse i.v. on day 10, 12 and 14, hind paws day 25
[3] = 1 μg/mouse i.v., ELISA, end of experiment
[4] = 1 μg/mouse i.v., ankle joints day 25, microCT
[5] = 1 μg/mouse i.v., day 25, flow cytometry, VIP score
[6] = 1 μg/mouse i.v., day 25, immunohistochemistry

SMILES: CC/C=C\C/C=C\C[C@H](O)[C@@H](/C=C/C=C/C=C\C/C=C\CCC(=O)O)SC[C@H](N)C(=O)O [MCTR3, 13R-cysteinyl, 14S-hydroxy-4Z, 7Z, 9E, 11E, 13R, 14S, 16Z, 19Z-docosahexaenoic acid]
- clinical scores [1]: significant reduction
- joint oedema [1]: marked reduction
- safranin O-staining in joints (glycosaminoglycan content) (1 μg/mouse i.v. on day 10, 12 and 14, day 25): significantly higher
- cartilage damage (H&E) [2]: significantly reducing
- leukocyte infiltration (H&E) [2]: significantly reducing
- resolution interval (1 μg/mouse i.v. on day 10, 12 and 14, vehicle ~9 days): ~5 days
- plasma CTX concentrations (bone resorption marker) [3]: significant reduction
- plasma PINP levels (bone formation marker) [3]: similar
- bone callus size (total volume and surface area occupied by the callus) [4]: smaller
- surface to volume ratio in the callus [4]: significant increase
- Arginase (Arg)-1 in joint macrophages [5]: upregulation
- Interleukin (IL)-10 in joint macrophages [5]: upregulation
- expression of collagen 2 in joints [6]: increase
- expression of collagen X in joints [6]: increase
